Reference: PMC5452050 (ACS Omega, 2017)
Changes are numbered by the printed parent chain.

How the values were obtained:
Assay in all cases: Kd determination
Format in all cases: binding
FLT3-autoinhibited = target: T1, FLT3-autoinhibited (Homo sapiens, UniProt P36888)
T1 sequence (P36888 564-993 limits assumed): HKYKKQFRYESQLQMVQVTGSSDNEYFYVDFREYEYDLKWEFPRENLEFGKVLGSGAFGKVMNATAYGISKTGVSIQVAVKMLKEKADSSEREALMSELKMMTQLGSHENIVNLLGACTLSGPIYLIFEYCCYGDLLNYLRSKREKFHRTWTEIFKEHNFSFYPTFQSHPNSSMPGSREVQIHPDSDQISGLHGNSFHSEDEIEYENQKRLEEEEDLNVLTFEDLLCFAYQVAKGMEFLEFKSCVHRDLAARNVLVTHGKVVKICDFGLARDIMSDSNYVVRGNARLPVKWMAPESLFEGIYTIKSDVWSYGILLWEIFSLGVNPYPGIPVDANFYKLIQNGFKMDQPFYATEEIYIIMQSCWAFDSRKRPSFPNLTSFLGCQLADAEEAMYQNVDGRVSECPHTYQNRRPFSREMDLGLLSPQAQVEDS

FLT3 (D835H) = target: T2, FLT3 (D835H) (Homo sapiens, UniProt P36888, D835H)
T2 sequence (P36888 27-993 D835H): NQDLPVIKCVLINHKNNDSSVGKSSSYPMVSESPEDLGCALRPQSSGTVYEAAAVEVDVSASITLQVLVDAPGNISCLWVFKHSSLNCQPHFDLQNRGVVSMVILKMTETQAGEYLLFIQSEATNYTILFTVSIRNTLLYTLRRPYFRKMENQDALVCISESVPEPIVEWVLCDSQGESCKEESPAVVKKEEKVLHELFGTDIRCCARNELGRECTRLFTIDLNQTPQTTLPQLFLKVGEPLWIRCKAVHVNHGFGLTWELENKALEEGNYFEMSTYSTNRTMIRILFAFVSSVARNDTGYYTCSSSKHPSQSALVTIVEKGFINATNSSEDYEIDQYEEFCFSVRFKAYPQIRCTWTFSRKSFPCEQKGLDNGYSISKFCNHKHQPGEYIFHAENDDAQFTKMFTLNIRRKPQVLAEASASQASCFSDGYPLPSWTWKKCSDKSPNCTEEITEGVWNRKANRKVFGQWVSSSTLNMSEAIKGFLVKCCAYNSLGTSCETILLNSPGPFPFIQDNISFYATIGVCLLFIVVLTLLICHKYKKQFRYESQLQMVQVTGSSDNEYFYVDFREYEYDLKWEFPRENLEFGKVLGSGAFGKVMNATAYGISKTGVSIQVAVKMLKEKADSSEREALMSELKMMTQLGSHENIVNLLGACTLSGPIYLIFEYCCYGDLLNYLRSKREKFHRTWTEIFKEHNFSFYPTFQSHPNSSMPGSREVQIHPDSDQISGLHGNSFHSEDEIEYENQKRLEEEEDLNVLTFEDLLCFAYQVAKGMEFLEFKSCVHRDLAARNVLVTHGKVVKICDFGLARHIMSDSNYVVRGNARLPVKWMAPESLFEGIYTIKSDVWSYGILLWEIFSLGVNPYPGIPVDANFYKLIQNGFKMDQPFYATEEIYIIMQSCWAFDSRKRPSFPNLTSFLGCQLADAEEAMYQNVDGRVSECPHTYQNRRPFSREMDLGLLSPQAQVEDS

FLT3 (ITD, D835V) = target: T3, FLT3 (ITD, D835V) (Homo sapiens, UniProt P36888, D835V/ITD)
T3 sequence (P36888 564-993 D835V): T1 sequence (P36888 564-993 limits assumed) with D272V

FLT3 (R834Q) = target: T4, FLT3 (R834Q) (Homo sapiens, UniProt P36888, R834Q)
T4 sequence (P36888 27-993 R834Q): T2 sequence (P36888 27-993 D835H) with R808Q, H809D

Kd (FLT3-autoinhibited) [nM] | Kd (FLT3 (D835H)) [nM] | Kd (FLT3 (ITD, D835V)) [nM] | Kd (FLT3 (R834Q)) [nM] | SMILES
78 | 1.2 | 0.36 | 82 | CC(C)Nc1ccnc(Nc2cccc(-c3cccnc3)c2)n1 [Compound 5e, N^4-Isopropyl-N^2-(3-(pyridin-3-yl)phenyl)pyrimidine-2,4-diamine]
1100 | 22 | 7.2 | 680 | c1cncc(-c2cccc(Nc3nccc(NC4CCCCC4)n3)c2)c1 [Compound 1, N^4-Cyclohexyl-N^2-(3-(pyridin-3-yl)phenyl)pyrimidine-2,4-diamine]
> 10000 | > 10000 | > 10000 | > 10000 | CC(C)Nc1ccnc(Nc2ccccc2-c2ccccc2)n1 [Compound 6a, N^2-([1,1′-Biphenyl]-2-yl)-N^4-isopropylpyrimidine-2,4-diamine]
